Source: ChEMBL document CHEMBL1143538 (Bioorg Med Chem Lett, 2005)

Key:
Type in all cases: cell-based
[1] = molecular target: Delta-type opioid receptor (Homo sapiens, UniProt P41143); assay: Binding affinity against Opioid receptor delta 1 expressed in CHO cells using [3H]Naltrindole as radioligand
Mu-type opioid receptor = Mu-type opioid receptor (Homo sapiens, UniProt P35372); assay: Binding affinity against Opioid receptor mu 1 expressed in CHO cells using [3H]DAMGO as radioligand
[2] = molecular target: Kappa-type opioid receptor (Homo sapiens, UniProt P41145); assay: Binding affinity against Opioid receptor kappa 1 expressed in CHO cells using [3H]U-69593 as radioligand
Chain of Kappa-type opioid receptor (P41145 whole entry): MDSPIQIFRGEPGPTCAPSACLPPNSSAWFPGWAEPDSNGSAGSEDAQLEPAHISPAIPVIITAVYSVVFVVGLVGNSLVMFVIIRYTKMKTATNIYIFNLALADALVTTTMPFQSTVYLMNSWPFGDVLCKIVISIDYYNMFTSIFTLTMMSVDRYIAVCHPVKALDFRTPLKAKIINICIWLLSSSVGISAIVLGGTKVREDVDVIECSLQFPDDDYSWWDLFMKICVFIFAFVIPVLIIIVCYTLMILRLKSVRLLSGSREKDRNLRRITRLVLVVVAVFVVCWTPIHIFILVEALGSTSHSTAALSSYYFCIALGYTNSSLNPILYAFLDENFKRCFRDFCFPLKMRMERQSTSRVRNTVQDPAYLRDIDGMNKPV

Chain of Delta-type opioid receptor (P41143 whole entry): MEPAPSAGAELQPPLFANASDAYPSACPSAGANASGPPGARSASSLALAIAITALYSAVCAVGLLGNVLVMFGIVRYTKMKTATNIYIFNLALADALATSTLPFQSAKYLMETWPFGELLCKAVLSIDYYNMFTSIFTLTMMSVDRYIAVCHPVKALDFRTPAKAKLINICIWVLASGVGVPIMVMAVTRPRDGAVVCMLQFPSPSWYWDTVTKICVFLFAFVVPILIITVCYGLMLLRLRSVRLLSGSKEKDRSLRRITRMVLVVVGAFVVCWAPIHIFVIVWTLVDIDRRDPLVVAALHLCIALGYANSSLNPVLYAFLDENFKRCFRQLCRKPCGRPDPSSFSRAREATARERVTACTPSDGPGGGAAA
Chain of Mu-type opioid receptor (P35372 whole entry): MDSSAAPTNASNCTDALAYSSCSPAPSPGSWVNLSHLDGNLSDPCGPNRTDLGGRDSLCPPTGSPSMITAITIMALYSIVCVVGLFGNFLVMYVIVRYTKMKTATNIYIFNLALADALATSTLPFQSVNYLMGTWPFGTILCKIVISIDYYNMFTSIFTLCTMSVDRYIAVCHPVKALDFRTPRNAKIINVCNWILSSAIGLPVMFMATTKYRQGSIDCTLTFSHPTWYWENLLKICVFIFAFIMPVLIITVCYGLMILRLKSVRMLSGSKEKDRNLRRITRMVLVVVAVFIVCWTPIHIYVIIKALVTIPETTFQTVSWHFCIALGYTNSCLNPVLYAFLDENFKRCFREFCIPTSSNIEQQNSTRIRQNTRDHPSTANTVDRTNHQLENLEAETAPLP

SMILES	Ki [1] [nM]	Ki (Mu-type opioid receptor) [nM]	Ki [2] [nM]
COc1c(C(N)=O)ccc2c1[C@]13CCN(CC4CC4)[C@H](C2)[C@]1(O)CCC(=O)C3	480	11	23
O=C1CC[C@@]2(O)[C@H]3Cc4ccc(O)c(O)c4[C@@]2(CCN3CC2CC2)C1	130	17	2.2
NC(=O)c1ccc2c(c1O)[C@]13CCN(CC4CCC4)[C@H](C2)[C@]1(O)CCC(=O)C3	4.2		0.27
NC(=O)c1ccc2c3c1O[C@H]1C(=O)CC[C@@]4(O)[C@@H](C2)N(CC2CC2)CC[C@]314	550	0.71	11
NC(=O)c1ccc2c(c1O)[C@]13CCN(CC4CC4)[C@H](C2)[C@]1(O)CCC(=O)C3 [SAMIDORPHAN]	2.6	0.052	0.23
